Data from patent US20190365799A1, “THERAPIES FOR THE TREATMENT OF LIDOCAINE-INEFFECTIVE AND HYPOKALEMIC CONDITIONS” (AlkaliDx, Inc., priority 2016, published 2019).
Entries after “also recorded” stand apart in the source; their conditions may differ.

Legend:
[1] = system: patients with Lidocaine-Ineffective Conditions; assay: Off-label treatment of patients with lidocaine-ineffective conditions with potassium or potassium-elevating drugs (clinical experience, patient reports); format: in vivo, human
Method: The condition is a chronic one, and patients benefit from increasing the serum potassium both prophylactically and acutely. I have discovered that patients with such “Lidocaine-Ineffective Conditions” that are treated with the compositions and methods of this invention (e.g., potassium supplementation or potassium-elevating agents) derive a significant therapeutic benefit.
Based on our research and discussions with us, patients with lidocaine-ineffective conditions have been treated with potassium and potassium-elevating drugs under the care of their personal physician in off-label use.

[2] = oral potassium salt therapy, general statement; cited from earlier work
[3] = system: sodium channel in the sensory neurons; details: local anesthesia; Rozanski et al. 1988, Nakai et al. 2000; cited from earlier work
[4] = clinical experience with 15 patients, potassium supplementation

## [K+] [potassium]
[1]; [4]
  nervous system sensitivity: restore the normal level of nervous system sensitivity
  symptoms of ADHD: suppresses the symptoms of ADHD
[1]; off-label use under care of personal physician, anecdotal patient reports
  patient-reported effect of treatment: nothing short of miraculous; also recorded: stopped fighting with their teacher
[1]; off-label use, same dose, middle-aged person
  persistence of effect over time: continued to be as effective, at the same dose, after many months

## O=C([O-])[C@H](O)[C@@H](O)[C@H](O)[C@H](O)CO.[K+] [potassium gluconate]
[2]
  gastric tolerability: better tolerated

## CCN(CC)CC(=O)Nc1c(C)cccc1C [lidocaine]
[3]
  share of the population for which lidocaine is ineffective: 2.7-11%

## [Cl-].[K+] [potassium chloride]
[2]
  gastric tolerability: usually results in stomach upset and gastric pain; also recorded: regularly causes gastric upset
